Experimental data published in patent publication US4111955A, “N-Trihalomethanesulfenyl carbamoyloximino di-sulfur heterocyclic compounds” (priority 1976, dated 1978).
Converted amounts (≈) assume the structure as drawn.

Experiments:
[1] = test system: bean aphid (Aphis fabae Scop.); experiment: Bean Aphid Foliage Spray Test; assay type: in vivo; set-up: key to pesticidal activity rating, Aphid: A: excellent control; B: partial control; C: no control
Method: Adults and nymphal stages of the bean aphid (Aphis fabae Scop.) reared on potted dwarf nasturtium plants at 65°-70° F. and 50-70 percent relative humidity, constituted the test insects. For testing purposes, the number of aphids per pot was standardized to 100-150 by trimming plants containing excess aphids.
The test compounds were formulated by diluting the stock suspension with water to give a suspension containing 500 parts of test compound per million parts of final formulation.
The potted plants (one pot per compound tested) infested with 100-150 aphids, were placed on a revolving turntable and sprayed with 100-110 milliliters of test compound formulation by use of a DeVilbiss spray gun set at 40 psig. air pressure. This application, which lasted 25 seconds, was sufficient to wet the plants to run-off. As a control, 100-110 milliliters of a water-acetone-emulsifier solution containing no test compound were also sprayed on infested plants. After spraying, the pots were placed on their sides on a sheet of white standard mimeograph paper which had been previously ruled to facilitate counting. Temperature and humidity in the test room during the 24 hour holding period were 65°-70° F. and 50-70 percent, respectively. Aphids which fell onto the paper and were unable to remain standing after being uprighted were considered dead. Aphids remaining on the plants were observed closely for movement and those which were unable to move the length of the body upon stimulation by prodding were considered dead. Percent mortality was recorded for various concentration levels.
(§1) In these tests the pesticidal activity of the compounds against aphid, mite, Southern Armyworm, Bean Beetle and House fly was rated as follows:
(§2) The LD50 values shown in the above Table II were determined by testing the compositions over an appropriate concentration range obtained by serial dilution of the stock suspension with water. The percent kill was plotted on log-probit graph paper versus parts per million concentration, and the LD50 read from an eye-fitted line drawn through the resultant points.

[2] = test system: aphid, mite, Southern Armyworm, Bean Beetle and House fly; experiment: Overall pesticidal activity / insect toxicity compared with methylcarbamoyl derivatives; assay type: in vivo; conditions: all cases except the bean-beetle; Table II
Text: as §1
In the above Table, A indicates excellent control, B indicates partial control and C indicates no control. For comparison purposes, there is provided immediately below the data presented for the trihalomethanesulfenyl derivative the activity measurements achieved from the corresponding methyl-carbamoyl derivative adjacent to the chemical designation --NHCH3.
as §2

For `CN(SC(Cl)(Cl)Cl)C(=O)ON=C1CSCCS1` [2-[(N-METHYL-N-TRICHLOROMETHANESULFENYL)-CARBAMOYLOXIMINO]-1,4-DITHIANE], the “pesticidal activity rating, Aphid” value ([1]; 500 parts per million, 24 hour) was “A”, the LC50 ([1]; Aphis fabae, foliar, 24 h, Table II, read-out: Insect Toxicity, LD50, Aphid) was 13 µg/mL (≈ 36.5 µM) and the “insect toxicity relative to the methylcarbamoyl composition” value [2] was “essentially equivalent”.
